Data reported in US11919908B2, “Substituted pyrrolo[2,3-d]pyrimidine compounds as JAK2 V617F inhibitors” (Incyte Corporation, priority 2020, dated 2024).

Columns and labels:
[1] = molecular target: T1, pseudo-kinase domain (JH2) of human V617F mutant JAK2 (Homo sapiens, UniProt O60674, F794H/V617F/W659A/W777A); assay: JAK2 LanthaScreen JH2-V617F Binding Assay; settings: 50 nM Fluorescent JAK2-JH2 Tracer, 1 hour at 25° C.
T1 construct: pseudo-kinase domain (JH2, amino-acids 536-812 with 3 surface mutations W659A, W777A, F794H); His (C); purchased BPS Bioscience 79498; host or cells: baculovirus expression system
T1 sequence (O60674 536-812 V617F/W659A/W777A/F794H): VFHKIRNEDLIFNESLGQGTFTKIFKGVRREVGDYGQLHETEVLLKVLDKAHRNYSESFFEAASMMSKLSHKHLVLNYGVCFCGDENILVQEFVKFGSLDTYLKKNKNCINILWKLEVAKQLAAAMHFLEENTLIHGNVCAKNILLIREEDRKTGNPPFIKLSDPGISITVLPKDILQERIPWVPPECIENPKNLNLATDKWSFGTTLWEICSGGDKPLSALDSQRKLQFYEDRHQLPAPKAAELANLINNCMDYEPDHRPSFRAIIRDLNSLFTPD
Outline: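 Biotinylated His-Avi-tagged JH2 domain (aa 536-812, V617F plus 3 surface mutations; 0.26 nM), baculovirus-expressed, incubated 1 hour at 25° C with compound, 50 nM fluorescent JH2 tracer and 0.25 nM streptavidin-Tb in pH 7.5 Tris buffer. Tracer displacement read by LanthaScreen TR-FRET; non-specific binding with 2 mM ATP; four-parameter IC50.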

[2] = molecular target: T2, pseudo-kinase domain (JH2) of human Wild Type JAK2 (Homo sapiens, UniProt O60674, F794H/W659A/W777A); assay: JAK2 LanthaScreen JH2-WT Binding Assay; settings: 50 nM Fluorescent JAK2-JH2 Tracer, 1 hour at 25° C.
T2 construct: pseudo-kinase domain (JH2, amino-acids 536-812 with 3 surface mutations W659A, W777A, F794H); His (C); purchased BPS Bioscience 79463; host or cells: baculovirus expression system
T2 sequence (O60674 536-812 W659A/W777A/F794H): as the sequence (O60674 536-812 V617F/W659A/W777A/F794H) above, with F82V counted along it
Outline: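 Biotinylated His-Avi-tagged JAK2 JH2 (aa 536-812, three surface mutations; 0.145 nM) competed with 50 nM fluorescent tracer, using 0.25 nM streptavidin-Tb, in pH 7.5 Tris buffer for 1 h at 25° C.; non-specific binding was set with 2 mM ATP. TR-FRET read; IC50 from four-parameter fit.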

[3] = molecular target: T3, catalytic domain (JH1) of human JAK2 (Homo sapiens, UniProt O60674); assay: JAK2 LanthaScreen JH1 Binding Assay; settings: 50 nM Fluorescent JAK2-JH1 Tracer, 2 hours at 25° C.
T3 construct: catalytic domain (JH1, amino acids 826-1132) of human JAK2; FLAG (N); purchased Carna Biosciences 08-445-20N; host or cells: baculovirus expression system
T3 sequence (O60674 826-1132): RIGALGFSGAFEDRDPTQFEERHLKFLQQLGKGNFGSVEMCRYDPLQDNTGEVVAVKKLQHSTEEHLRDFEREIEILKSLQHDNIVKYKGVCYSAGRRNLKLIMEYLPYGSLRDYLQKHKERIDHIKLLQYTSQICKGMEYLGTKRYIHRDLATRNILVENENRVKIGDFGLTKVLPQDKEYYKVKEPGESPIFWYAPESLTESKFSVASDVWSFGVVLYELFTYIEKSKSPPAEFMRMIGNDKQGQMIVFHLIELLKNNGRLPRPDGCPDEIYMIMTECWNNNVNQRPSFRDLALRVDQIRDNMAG
Outline: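 TR-FRET tracer-displacement binding using N-terminal FLAG-tagged, biotinylated JH1 (aa 826-1132, baculovirus-expressed) at 1.5 nM, with 50 nM fluorescent tracer and 0.5 nM streptavidin-Tb. Buffer was 50 mM Tris pH 7.5, 10 mM MgCl2, 5 mM DTT, 2 h at 25° C. Non-specific binding used 2 mM ATP; IC50 came from four-parameter fits.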

Structure (SMILES)	IC50 [1]	IC50 [2]	IC50 [3]
CN1CCC(c2ccc(-c3c(-c4ccc(S(=O)(=O)N(C)C)cc4)[nH]c4nc(N)[nH]c(=O)c34)cc2)CC1 [Example 8, 4-(2-Amino-5-(4-(1-methylpiperidin-4-yl)phenyl)-4-oxo-4,7-dihydro-3H-pyrrolo[2,3-d]pyrimidin-6-yl)-N,N-dimethylbenzene sulfonamide]	1000 to 2500 nM	1000 to 2500 nM	> 2500 nM
Cc1cccc(-c2c(-c3ccc(S(=O)(=O)N(C)C)cc3)[nH]c3nc(N)[nH]c(=O)c23)c1 [Example 2, 4-(2-Amino-4-oxo-5-(3-tolyl)-4,7-dihydro-3H-pyrrolo[2,3-d]pyrimidin-6-yl)-N,N-dimethylbenzenesulfonamide]	500 to 1000 nM	500 to 1000 nM	1000 to 2500 nM
CN(C)S(=O)(=O)c1ccc(-c2[nH]c3nc(N)[nH]c(=O)c3c2-c2cccc3c2OCCN3)cc1 [Example 49, 4-(2-Amino-5-(3,4-dihydro-2H-benzo[b][1,4]oxazin-8-yl)-4-oxo-4,7-dihydro-3H-pyrrolo[2,3-d]pyrimidin-6-yl)-N,N-dimethylbenzenesulfonamide]	500 to 1000 nM	500 to 1000 nM	> 2500 nM
COc1cc2ccccc2cc1-c1c(-c2ccc(S(=O)(=O)N(C)C)cc2)[nH]c2nc(N)[nH]c(=O)c12 [Example 33, 4-(2-Amino-5-(3-methoxynaphthalen-2-yl)-4-oxo-4,7-dihydro-3H-pyrrolo[2,3-d]pyrimidin-6-yl)-N,N-dimethylbenzene sulfonamide]	500 to 1000 nM	500 to 1000 nM	> 2500 nM
COc1cccc(-c2c(-c3ccc(S(=O)(=O)N(C)C)cc3)[nH]c3nc(N)[nH]c(=O)c23)c1OC [Example 43, 4-(2-Amino-5-(2,3-dimethoxyphenyl)-4-oxo-4,7-dihydro-3H-pyrrolo[2,3-d]pyrimidin-6-yl)-N,N-dimethylbenzene sulfonamide]	1000 to 2500 nM	1000 to 2500 nM	> 2500 nM
CN1CCOc2cc(-c3c(-c4ccc(S(=O)(=O)N(C)C)cc4)[nH]c4nc(N)[nH]c(=O)c34)ccc21 [Example 22, 4-(2-Amino-5-(4-methyl-3,4-dihydro-2H-benzo[b] [1,4]oxazin-7-yl)-4-oxo-4,7-dihydro-3H-pyrrolo [2,3-d]pyrimidin-6-yl)-N,N-dimethylbenzene sulfonamide]	500 to 1000 nM	500 to 1000 nM	1000 to 2500 nM
CN(C)S(=O)(=O)c1ccc(-c2[nH]c3nc(N)[nH]c(=O)c3c2-c2cccc3c2OCC3)cc1 [Example 41, 4-(2-Amino-5-(2,3-dihydrobenzofuran-7-yl)-4-oxo-4,7-dihydro-3H-pyrrolo[2,3-d]pyrimidin-6-yl)-N,N-dimethylbenzene sulfonamide]	100 to 500 nM	100 to 500 nM	> 2500 nM
COc1ccc(-c2c(-c3ccc(S(=O)(=O)N(C)C)cc3)[nH]c3nc(N)[nH]c(=O)c23)c(OC)c1 [Example 42, 4-(2-Amino-5-(2,4-dimethoxyphenyl)-4-oxo-4,7-dihydro-3H-pyrrolo[2,3-d]pyrimidin-6-yl)-N,N-dimethylbenzene sulfonamide]	500 to 1000 nM	500 to 1000 nM	> 2500 nM
CN(C)S(=O)(=O)c1ccc(-c2[nH]c3nc(N)[nH]c(=O)c3c2-c2ccccc2Cl)cc1 [Example 5, 4-(2-Amino-5-(2-chlorophenyl)-4-oxo-4,7-dihydro-3H-pyrrolo[2,3-d]pyrimidin-6-yl)-N,N-dimethylbenzene sulfonamide]	1000 to 2500 nM	1000 to 2500 nM	> 2500 nM
CN(C)S(=O)(=O)c1ccc(-c2[nH]c3nc(N)[nH]c(=O)c3c2-c2cccc3c2OC(C)(C)C3)cc1 [Example 71, 4-(2-Amino-5-(2,2-dimethyl-2,3-dihydrobenzofuran-7-yl)-4-oxo-4,7-dihydro-3H-pyrrolo[2,3-d]pyrimidin-6-yl)-N,N-dimethylbenzenesulfonamide]	> 2500 nM	> 2500 nM	> 2500 nM
CN(C)S(=O)(=O)c1ccc(-c2[nH]c3nc(N)[nH]c(=O)c3c2-c2cccc3ccoc23)cc1 [Example 3, 4-(2-Amino-5-(benzofuran-7-yl)-4-oxo-4,7-dihydro-3H-pyrrolo[2,3-d]pyrimidin-6-yl)-N,N-dimethylbenzenesulfonamide]	100 to 500 nM	100 to 500 nM	> 2500 nM
CN(C)S(=O)(=O)c1ccc(-c2[nH]c3nc(N)[nH]c(=O)c3c2-c2cccc(C(N)=O)c2)cc1 [Example 14, 3-(2-Amino-6-(4-(N,N-dimethylsulfamoyl)phenyl)-4-oxo-4,7-dihydro-3H-pyrrolo [2,3-d]pyrimidin-5-yl)benzamide]	1000 to 2500 nM	1000 to 2500 nM	1000 to 2500 nM
CN(C)S(=O)(=O)c1ccc(-c2[nH]c3nc(N)[nH]c(=O)c3c2-c2cnn(C3CCOCC3)c2)cc1 [Example 37, 4-(2-Amino-4-oxo-5-(1-(tetrahydro-2H-pyran-4-yl)-1H-pyrazol-4-yl)-4,7-dihydro-3H-pyrrolo[2,3-d]pyrimidin-6-yl)-N,N-dimethylbenzene sulfonamide]	1000 to 2500 nM	> 2500 nM	> 2500 nM
COc1ncccc1-c1c(-c2ccc(S(=O)(=O)N(C)C)cc2)[nH]c2nc(N)[nH]c(=O)c12 [Example 28, 4-(2-Amino-5-(2-methoxy-pyridin-3-yl)-4-oxo-4,7-dihydro-3H-pyrrolo[2,3-d]pyrimidin-6-yl)-N,N-dimethylbenzene sulfonamide]	1000 to 2500 nM	1000 to 2500 nM	> 2500 nM
